The source of these data is patent US10023593B2, “ALK kinase inhibitor, and preparation method and uses thereof” (BEIJING PEARL BIOTECHNOLOGY LIMITED LIABILITY COMPANY, priority 2014, dated 2018).

Assay [1] has as its system NCI-H2228 cell line. The experiment in a line: CellTiter-Glo cell proliferation inhibition on NCI-H2228 cell line. It is filed as cell-based. As to conditions: Homo sapiens, NCI-H2228, 96 h, NCI-H2228 cells, 5000 cells/well, 4 days drug treatment. The procedure, abridged: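 NCI-H2228 cells, 5000/well in RPMI-1640 + 10% FBS, treated with compounds 2 h after seeding (0.5% DMSO final) for 4 days at 37° C. Viability by CellTiter-Glo luminescence; inhibition relative to DMSO control, IC50 from curve fit.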

Assay [2] deals with Karpas-299 cell line. In words: CellTiter-Glo cell proliferation inhibition on Karpas-299 cell line. Type of assay: cell-based. Conditions: Homo sapiens, 96 h, Karpas-299 cells, 5000 cells/well, 4 days drug treatment. How it is done: 4. Cell Proliferation Inhibitory Activities of the Compounds of the Present Invention on Karpas-299 Cell Line
? experimental method ? CellTiter-Glo® Luminescent Cell Viability Assay kit from Promega company was used to detect cell proliferation inhibitory activities of the compounds on Karpas-299 cell line.
? instrument ? Envision 2104 plate reader from PerKinElmer company; Vi-Cell XR cell counter from Beckman Counter company; MCO-18AIC CO2 incubator from SANYO company.
? experiment material ? CellTiter-Glo® Luminescent Cell Viability Assay Kit (Promega company, catalog No. G7573); Karpas-299 cell line (DSMZ, catalog No. ACC31); RPMI-1640 medium (HyClone company, catalog No. SH30809.01B); fetal bovine serum (FBS) (Gibco company, catalog No. 10099-141); PBS (HyClone company, catalog No. SH30256.01B); 96 wells cell culture plate (Corning company, catalog No. 3610); DMSO (AMRESCO company, catalog No. 0231); 96 wells plates (for diluting compounds) (CITOTEST company, catalog No. Ref36020096D);
? experimental condition ? Karpas-299 cells in exponential growth phase were collected and viable cells were counted by Vi-Cell XR cell counter. Cell suspension was adjusted to 62500 cells/ml with culture medium (RPMI-1640+10% FBS). 80 μl cell suspension was added into each well of 96 wells cell culture plate so that so that the final cell number of Karpas-299 cells was 5000 cells/well. The cells were cultivated in an incubator with an atmosphere of 37° C., 5% CO2 and 95% humidity for 2 hours and then each well was added with 20 μl compounds in RPMI-1640 medium solution (the final concentration of DMSO was 0.5%). 4 days after drug treatment, each well was added with 50 μl CellTiter-Glo solution which was previously thawed and equilibrated to room temperature, and mixed for 2 minutes with microplate shaker. After placing at room temperature for 10 minutes, luminescence reading value was measured with PerkinElmer Envision 2104 plate reader and the data was analyzed.
? tested samples ? Compounds of the examples.
Luminescence value of DMSO solvent control (Vvehicle control, which is the mean luminescence value from DMSO solvent control group)
Tested luminescence value (Vsample, which is the luminescence value from given concentration of compounds group) Inhibition rate (%)=(1−Vsample/Vvehicle control)×100
(§1) ? data processing ? IC50 of compounds was calculated by using XLfit program in Excel.
In general terms: In ATP-based viability assays light output follows the ATP content of the culture.

Assay [3] has as its target T1, cytochrome P450 1A2 (Homo sapiens, UniProt P05177).
T1 sequence (P05177 1-516): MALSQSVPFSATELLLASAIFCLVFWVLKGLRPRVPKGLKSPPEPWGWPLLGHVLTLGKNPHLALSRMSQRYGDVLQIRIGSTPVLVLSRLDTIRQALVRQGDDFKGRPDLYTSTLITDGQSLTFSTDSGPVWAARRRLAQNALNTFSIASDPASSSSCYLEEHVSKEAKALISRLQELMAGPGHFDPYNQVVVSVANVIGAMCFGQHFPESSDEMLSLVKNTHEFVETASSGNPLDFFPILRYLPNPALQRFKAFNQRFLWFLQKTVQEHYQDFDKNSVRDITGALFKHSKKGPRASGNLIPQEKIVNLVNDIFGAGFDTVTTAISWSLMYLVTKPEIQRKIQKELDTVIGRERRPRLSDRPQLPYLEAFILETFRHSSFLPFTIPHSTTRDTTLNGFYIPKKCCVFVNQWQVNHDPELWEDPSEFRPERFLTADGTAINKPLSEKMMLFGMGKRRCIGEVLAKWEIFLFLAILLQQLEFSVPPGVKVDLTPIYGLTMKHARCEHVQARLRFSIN
In words: Inhibitory activity on cytochrome P450 1A2. As to conditions: no significant inhibition. Type of assay: in vitro ADME.

For assay [4], the target named is cytochrome P450 2D6 (Homo sapiens, UniProt P10635). In words: Inhibitory activity on cytochrome P450 2D6. As to conditions: no significant inhibition. Type of assay: in vitro ADME.
Assay [5] addresses cytochrome P450 3A4 (Homo sapiens, UniProt P08684). The experiment in a line: Inhibitory activity on cytochrome P450 3A4. As to conditions: no significant inhibition. Type of assay: in vitro ADME.
The target of assay [6] is cytochrome P450 2C19 (Homo sapiens, UniProt P33261). In words: Inhibitory activity on cytochrome P450 2C19. Conditions: no significant inhibition. Type of assay: in vitro ADME.
The target in assay [7] is cytochrome P450 2C9 (Homo sapiens, UniProt P11712). The experiment in a line: Inhibitory activity on cytochrome P450 2C9. Type of assay: in vitro ADME. Conditions: no significant inhibition.
The target in assay [8] is T2, L1196M mutant ALK kinase (Homo sapiens, UniProt Q9UM73, L1196M).
T2 construct: purchased Sino-US Crown Bioscience, Inc. batch number ALKm_20110923
The experiment in a line: HTRF KinEASE-TK assay, inhibitory activity on L1196M mutant ALK kinase. Type of assay: biochemical. As to conditions: L1196M mutant ALK 1 ng/μl, substrate 1 μM, ATP 5 μM, 30° C. 35 minutes, read-out: Inhibition on ALK kinases (L1196M mutant), IC50.
Description: 2. Inhibitory Activities of the Compounds of the Present Invention on L1196M Mutant ALK Kinases
? experimental method ? HTRF KinEASE™-TK Assay kit from Cisbio company was used to detect inhibitory activities of the compounds on L1196M mutant ALK kinases.
(§2) ? instrument ? Envision 2104 plate reader from PerKinElmer company.
? experiment material ? HTRF KinEASE™-TK Assay Kit (Cisbio company, catalog No. 62TK0PEC); L1196M mutant ALK kinase (produced by Sino-US Crown Bioscience, Inc., batch number ALKm_20110923); DTT (Gibco BRL company, catalog No. 15508-012); MgCl2 (Sigma Aldrich company, catalog No. M-2670); ATP (Sigma Aldrich company, catalog No. A-7699, batch number 051M7014V); DMSO (AMRESCO company, catalog No. 0231); EDTA (AMRESCO company, catalog No. 0105); 96 wells plates (for diluting compounds) (CITOTEST company, catalog No. Ref36020096D); OptiPlate™-384 (White), PerkinElmer company, catalog No. P12-004)
(§3) ? experimental condition ? Compounds (the final concentration of DMSO was 1%), the reaction substrate (the final concentration was 1 μM), ATP (the final concentration was 5 μM), and L1196M mutant ALK kinases (the final concentration was 1 ng/μl) were mixed respectively in a final volume of 10 μl reaction system (containing 5 mM MgCl2, 1× Kinase buffer, and 1 mM DTT). The mixture was reacted at 30° C. for 35 minutes after shaking for 30 seconds. After completion of the reaction, each well was added with 5 μl Sa-XL665 and 5 μl TK Antibody-Eu(K), and placed in the dark for 60 minutes to end the reaction after uniform mixing. The data was read from PerkinElmer EnVision plate reader ([…]), the 665/615 ratio was calculated, and the data was analyzed.
(§4) ? tested samples ? Compounds from the examples.
(§5) ? data analysis ? Minimum 665/615 ratio (Rmin, 665/615 ratio under the condition that 10.4 μM positive control drug LDK-378 was added)
(§6) Maximum 665/615 ratio (Rmax, 665/615 ratio under the condition that no compound was added)
(§7) Tested 665/615 ratio (Rcompound, 665/615 ratio under the condition that a given concentration of compound was added) Inhibition rate (%)=[1−(Rcompound−Rmin)/(Rmax−Rmin)]×100
as §1

Assay [9] concerns the target T3, Wild Type ALK kinase (Homo sapiens, UniProt Q9UM73).
T3 construct: purchased Sino-US Crown Bioscience, Inc. batch number ALK 20110607
The experiment in a line: HTRF KinEASE-TK assay, inhibitory activity on wild type ALK kinase. Type of assay: biochemical. Conditions: wild type ALK 1 ng/μl, substrate 1 μM, 30° C. 35 minutes, read-out: Inhibition on ALK kinases (wildtype), IC50.
Description: 1. Inhibitory Activities of the Compounds of the Present Invention on Wild Type ALK Kinases
? experimental method ? HTRF KinEASE™-TK Assay kit from Cisbio company was used to detect inhibitory activities of the compounds on wildtype ALK kinases (wild type ALK kinases).
as §2
? experiment material ? HTRF KinEASE™-TK Assay Kit (Cisbio company, catalog No. 62TK0PEC); Wild Type ALK kinase (produced by Sino-US Crown Bioscience, Inc., batch number ALK 20110607); DTT (Gibco BRL company, catalog No. 15508-012); MgCl2 (Sigma Aldrich company, catalog No. M-2670); ATP (Sigma Aldrich company, catalog No. A-7699); DMSO (AMRESCO company, catalog No. 0231); EDTA (AMRESCO company, catalog No. 0105); 96 wells plates (for diluting compounds) (CITOTEST company, catalog No. Ref36020096D); OptiPlate™-384 (White), PerkinElmer company, catalog No. P12-004)
as §3, with “[…]),” for “5 μM),”, “Wildtype” for “L1196M mutant”
as §4, §5, §6, §7, §1
For orientation: Time-resolved FRET reads energy transfer from a long-lived donor to a nearby acceptor.

T2 sequence (Q9UM73 19-1620 L1196M): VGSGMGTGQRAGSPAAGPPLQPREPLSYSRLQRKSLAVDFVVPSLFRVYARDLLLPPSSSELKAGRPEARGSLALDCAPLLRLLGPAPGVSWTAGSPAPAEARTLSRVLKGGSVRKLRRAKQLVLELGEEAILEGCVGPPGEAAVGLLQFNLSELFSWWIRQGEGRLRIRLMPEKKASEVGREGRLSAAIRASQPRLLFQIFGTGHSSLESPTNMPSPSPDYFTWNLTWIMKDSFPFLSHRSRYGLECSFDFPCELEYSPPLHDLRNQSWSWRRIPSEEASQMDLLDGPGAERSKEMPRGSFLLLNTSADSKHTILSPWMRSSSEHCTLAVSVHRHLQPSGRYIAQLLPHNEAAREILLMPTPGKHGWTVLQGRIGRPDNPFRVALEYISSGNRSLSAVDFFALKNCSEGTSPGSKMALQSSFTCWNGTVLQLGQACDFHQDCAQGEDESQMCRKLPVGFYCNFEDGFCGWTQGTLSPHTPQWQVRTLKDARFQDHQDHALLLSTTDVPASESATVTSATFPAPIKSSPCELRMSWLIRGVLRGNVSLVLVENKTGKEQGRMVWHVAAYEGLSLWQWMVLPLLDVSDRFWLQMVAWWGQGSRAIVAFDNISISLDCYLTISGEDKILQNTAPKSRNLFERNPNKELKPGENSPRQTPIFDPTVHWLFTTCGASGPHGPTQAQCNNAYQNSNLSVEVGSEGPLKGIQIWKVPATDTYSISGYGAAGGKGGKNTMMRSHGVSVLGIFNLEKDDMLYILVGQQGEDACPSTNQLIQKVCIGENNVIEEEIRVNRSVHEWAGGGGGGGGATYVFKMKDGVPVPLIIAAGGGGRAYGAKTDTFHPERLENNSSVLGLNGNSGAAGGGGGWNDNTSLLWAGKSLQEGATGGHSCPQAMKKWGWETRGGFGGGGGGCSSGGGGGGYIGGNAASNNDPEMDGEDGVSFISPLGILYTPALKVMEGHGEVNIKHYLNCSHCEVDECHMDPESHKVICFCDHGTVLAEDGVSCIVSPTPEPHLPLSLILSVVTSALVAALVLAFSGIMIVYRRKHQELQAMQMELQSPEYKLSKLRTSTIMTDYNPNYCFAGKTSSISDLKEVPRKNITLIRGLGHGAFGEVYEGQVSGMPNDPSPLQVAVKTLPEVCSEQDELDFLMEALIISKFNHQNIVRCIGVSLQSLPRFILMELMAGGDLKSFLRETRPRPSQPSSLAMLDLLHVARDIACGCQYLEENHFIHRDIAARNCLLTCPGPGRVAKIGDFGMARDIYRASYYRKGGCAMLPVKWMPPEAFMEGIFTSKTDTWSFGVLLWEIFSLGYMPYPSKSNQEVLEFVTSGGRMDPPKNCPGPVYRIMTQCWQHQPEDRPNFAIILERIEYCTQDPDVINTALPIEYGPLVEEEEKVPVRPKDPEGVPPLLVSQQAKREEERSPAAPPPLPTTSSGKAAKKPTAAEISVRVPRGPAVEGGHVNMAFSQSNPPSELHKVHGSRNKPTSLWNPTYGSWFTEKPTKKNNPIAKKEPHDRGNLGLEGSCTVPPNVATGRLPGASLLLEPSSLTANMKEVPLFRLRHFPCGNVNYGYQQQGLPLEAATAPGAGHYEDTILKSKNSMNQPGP
T3 sequence (Q9UM73 19-1620): as the sequence (Q9UM73 19-1620 L1196M) above, with M1178L counted along it
Chain of cytochrome P450 2C19 (P33261 whole entry): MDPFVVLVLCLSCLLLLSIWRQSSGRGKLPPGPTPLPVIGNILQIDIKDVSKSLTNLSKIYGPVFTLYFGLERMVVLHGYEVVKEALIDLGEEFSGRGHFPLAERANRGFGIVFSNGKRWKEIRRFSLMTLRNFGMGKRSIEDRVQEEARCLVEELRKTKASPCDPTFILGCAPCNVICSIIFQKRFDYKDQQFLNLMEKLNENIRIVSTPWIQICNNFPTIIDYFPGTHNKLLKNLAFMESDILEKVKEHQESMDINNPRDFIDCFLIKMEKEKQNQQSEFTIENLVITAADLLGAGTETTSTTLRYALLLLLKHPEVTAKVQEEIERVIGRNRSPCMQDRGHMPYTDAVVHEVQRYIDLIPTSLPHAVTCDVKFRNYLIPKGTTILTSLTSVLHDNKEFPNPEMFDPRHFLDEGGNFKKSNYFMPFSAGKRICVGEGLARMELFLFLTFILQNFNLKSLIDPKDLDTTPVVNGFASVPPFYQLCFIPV
Chain of cytochrome P450 3A4 (P08684 whole entry): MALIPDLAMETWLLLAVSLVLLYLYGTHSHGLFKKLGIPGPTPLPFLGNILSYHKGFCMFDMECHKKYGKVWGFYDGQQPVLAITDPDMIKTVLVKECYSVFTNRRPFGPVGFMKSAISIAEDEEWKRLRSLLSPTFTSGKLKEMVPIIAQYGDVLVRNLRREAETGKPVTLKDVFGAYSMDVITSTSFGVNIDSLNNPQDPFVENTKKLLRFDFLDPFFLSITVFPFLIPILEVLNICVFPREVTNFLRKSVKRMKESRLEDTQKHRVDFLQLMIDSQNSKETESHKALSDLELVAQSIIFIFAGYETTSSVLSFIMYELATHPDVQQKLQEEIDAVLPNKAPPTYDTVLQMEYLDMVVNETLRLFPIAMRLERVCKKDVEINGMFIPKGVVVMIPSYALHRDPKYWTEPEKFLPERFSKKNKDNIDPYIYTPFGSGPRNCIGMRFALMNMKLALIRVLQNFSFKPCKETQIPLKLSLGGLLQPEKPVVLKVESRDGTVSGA
Chain of cytochrome P450 2D6 (P10635 whole entry): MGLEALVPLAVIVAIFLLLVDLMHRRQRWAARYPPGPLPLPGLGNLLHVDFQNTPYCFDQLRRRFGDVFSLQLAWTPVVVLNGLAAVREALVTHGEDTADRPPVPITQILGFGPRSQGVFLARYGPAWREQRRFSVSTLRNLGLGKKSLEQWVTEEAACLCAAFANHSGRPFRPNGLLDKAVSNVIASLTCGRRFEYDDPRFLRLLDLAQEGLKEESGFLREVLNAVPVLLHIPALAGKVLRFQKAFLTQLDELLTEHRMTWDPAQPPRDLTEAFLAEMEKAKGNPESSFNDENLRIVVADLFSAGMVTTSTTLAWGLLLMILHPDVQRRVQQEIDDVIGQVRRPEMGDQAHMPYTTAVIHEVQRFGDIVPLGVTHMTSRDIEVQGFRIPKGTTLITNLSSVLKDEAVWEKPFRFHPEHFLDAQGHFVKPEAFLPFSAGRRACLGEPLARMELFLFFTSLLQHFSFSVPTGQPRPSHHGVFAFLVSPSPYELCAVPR
Chain of cytochrome P450 2C9 (P11712 whole entry): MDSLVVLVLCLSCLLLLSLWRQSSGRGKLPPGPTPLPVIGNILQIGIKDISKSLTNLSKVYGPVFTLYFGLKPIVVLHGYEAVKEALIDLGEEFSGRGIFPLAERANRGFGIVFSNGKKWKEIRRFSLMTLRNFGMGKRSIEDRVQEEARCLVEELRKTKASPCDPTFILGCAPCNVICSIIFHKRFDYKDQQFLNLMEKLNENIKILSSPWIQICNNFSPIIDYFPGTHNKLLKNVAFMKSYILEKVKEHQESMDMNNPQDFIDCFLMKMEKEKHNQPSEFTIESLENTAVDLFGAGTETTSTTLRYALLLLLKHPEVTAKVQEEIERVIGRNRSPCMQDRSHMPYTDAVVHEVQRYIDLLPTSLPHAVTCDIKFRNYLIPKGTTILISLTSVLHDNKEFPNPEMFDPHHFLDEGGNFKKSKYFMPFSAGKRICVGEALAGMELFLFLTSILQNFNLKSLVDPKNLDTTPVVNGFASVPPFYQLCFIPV

By IC50 is commonly meant the midpoint of a concentration-inhibition curve. On to `COCCN1CCC(c2cc(OC3CC3)c(Nc3ncc(Cl)c(Nc4cn(C)nc4S(=O)(=O)CC(C)C)n3)cc2C)CC1` [Final product 83], for which the IC50 was 53 nM in assay [1] and 11 nM in assay [2].

For the compound `Cc1cc(Nc2ncc(Cl)c(Nc3cn(C)nc3S(=O)(=O)C(C)C)n2)c(OC2CC2)cc1C1CCC(N2CCN(C)CC2)CC1` (centres unmarked) [Final product 202], the IC50 is above 10 µM in assay [3]; above 10 µM in assay [4]; above 10 µM in assay [5]; above 10 µM in assay [6]; 141 nM in assay [1]; above 10 µM in [7].

Regarding `Cc1cc(Nc2ncc(Cl)c(Nc3cn(C)nc3S(=O)(=O)C(C)C)n2)c(OC(C)C)cc1C1CC(C)N(C)C(C)C1` (centres unmarked) [Final product 97], the IC50 in assay [3] was above 10 µM; in assay [4], above 10 µM; in assay [5], above 10 µM; in assay [6] it was above 10 µM; in assay [1], 154 nM; in [7] it was above 10 µM.

Regarding `COC1CN(C)CCC1c1cc(OC2CC2)c(Nc2ncc(Cl)c(Nc3cn(C)nc3S(=O)(=O)CC(C)C)n2)cc1C` (centres unmarked) [Final product 59], the values for the IC50 in [1] and in assay [2] were 156 nM and 52 nM, respectively.

In the case of `Cc1cc(Nc2ncc(Cl)c(Nc3cn(C)nc3S(=O)(=O)C(C)C)n2)c(OC2CC2)cc1C1CCN(C)C(=O)C1` (centres unmarked) [Final product 103], the IC50 in [1] was found to be 66 nM; in [2], 10 nM.

Take `Cc1cc(Nc2ncc(Cl)c(Nc3cn(C)nc3S(=O)(=O)C(C)C)n2)c(OC2CC2)cc1C1CCN(C)C(C)(C)C1` (centres unmarked) [Final product 100]: the IC50 in [1] was found to be 61 nM; in assay [2], 6 nM.

With `Cc1cc(Nc2ncc(C)c(Nc3cn(C)nc3S(=O)(=O)C(C)C)n2)c(OC2CC2)cc1C1CCN(C)CC1` [Final product 72], the IC50 in assay [8] was found to be 6 nM; in [9], 1 nM; in [1], 69 nM.

In the case of `Cc1cc(Nc2ncc(Cl)c(Nc3cn(C)nc3S(=O)(=O)C(C)C)n2)c(OC2CC2)cc1C1CCN(C)C(C)C1` (centres unmarked) [Final product 92], the IC50 in assay [8] turned out to be 5 nM; in assay [9], 2 nM; in assay [1] it was 48 nM.

`Cc1cc(Nc2ncc(Cl)c(Nc3cn(C)nc3S(=O)(=O)C3CCC3)n2)c(OC2CC2)cc1C1CCN(C)CC1` [Final product 52]: the IC50 amounted to 15 nM in [8], 2 nM in assay [9] and 76 nM in assay [1].

With `Cc1cc(Nc2ncc(F)c(Nc3cn(C)nc3S(=O)(=O)C(C)C)n2)c(OC2CC2)cc1C1CCN(C)CC1` [Final product 70], the figures for the half-maximal inhibitory concentration (IC50) in assay [8], in assay [9] and in assay [1] were 18 nM, 2 nM and 81 nM, respectively.

Regarding `Cc1nc(S(=O)(=O)C(C)C)c(Nc2nc(Nc3cc(C)c(C4CCN(C)CC4)cc3OC3CC3)ncc2Cl)s1` [Final product 113], the IC50 came out at 22 nM in [8], 6 nM in assay [9] and 150 nM in [1].

In the case of `Cc1cc(Nc2ncc(Cl)c(Nc3cn(C)nc3S(=O)(=O)C(C)C)n2)c(C(C)C)cc1C1CCN(C)CC1` [Final product 33], the IC50 amounted to 28 nM in assay [8], 12 nM in assay [9] and 660 nM in [1].

As to `Cc1cc(Nc2ncc(C#N)c(Nc3cn(C)nc3S(=O)(=O)C(C)C)n2)c(OC2CC2)cc1C1CCN(C)CC1` [Final product 210, N^2-[2-cyclopropoxy-4-(1-methyl-piperidin-4-yl)-5-methyl-phenyl]-N^4-[1-methyl-3-(isopropylsulfonyl)-1H-pyrazol-4-yl]-5-(cyano)pyrimidin-2,4-diamine], the results for the IC50 in assay [8], in assay [9] and in assay [1] were 4 nM, 2 nM and 87 nM, respectively.
